These results are taken from PMC9505023, “Isatin Bis-Indole and Bis-Imidazothiazole Hybrids: Synthesis and Antimicrobial Activity” (Molecules, 2022).

For data set [1], the system named is Escherichia coli ATCC 25922. Put plainly: Microdilution broth susceptibility test, E. coli reference strain. Format: cell-based. As to conditions: ATCC25922, 24 h, growth as percentage relative to positive growth control, mean ± SD, read-out: E. coli microbial growth. An excerpt:
(§1) Breakpoint tables for interpretation of MICs and zone diameters.
(Dilution methods test growth across graded concentrations, often in twofold steps.)

For the next data set, the system named is Vero cells (ATCC CCL-81). Put plainly: Cytotoxicity test, WST8-based CCK-8 cell viability. Further details: species or system African green monkey; Vero cell proliferation: unit: %. To be noted: 100 µM; for Vero cell proliferation: 48 h, cell viability as percentage relative to untreated controls, mean ± SD. As for the experimental part:
African green monkey kidney cells (Vero ATCC CCL-81) obtained from ATCC were cultured in Eagle’s minimal essential medium (MEM) (Sigma-Aldrich, St. Louis, MO, USA), supplemented with 10% fetal bovine serum (FBS) (Carlo Erba Reagents, Milan, Italy), 100 U/mL penicillin, and 100 µg/mL streptomycin at 37 °C with 5% CO2. For the experiments, the cells were seeded into 96-well plates at 10^4 cells/well and incubated at 37 °C for 24 h. Following washes with PBS, the cell monolayer was incubated with 100 µL of medium containing 100 µM of the derivatives. Both untreated cells and cells incubated with the solvent were included in each experiment as controls. The cell viability was assessed by a WST8-based assay according to the manufacturer’s instructions (CCK-8, Cell Counting Kit-8, Dojindo Molecular Technologies, Rockville, MD, USA). After 48 h of incubation, the culture medium was removed from each well, the monolayer was washed with PBS, and 100 µL of fresh medium containing 10 µL of CCK-8 solution were added. Following 2 h at 37 °C, the absorbance was measured at 450/630 nm; data were calculated as the percentage of the cell viability relative to the untreated controls.

Data set [2] relates to Staphylococcus aureus ATCC 25923. Description: Microdilution broth susceptibility test, S. aureus reference strain. To be noted: for activity at 100 µM: read-out: S. aureus microbial growth. On the procedure:
The in vitro antimicrobial activity of the isatin derivatives was evaluated by a microdilution broth method in accordance with the guidelines provided by a number of international committees, such as The Clinical Laboratory Standards Institute (CLSI) in the U.S. or The European Committee on Antimicrobial Susceptibility Testing (EUCAST) in Europe reference bacterial strains, including Staphylococcus aureus (ATCC 25923) and Escherichia coli (ATCC 25922) and Candida albicans (ATCC 10231), were purchased from the American Type Culture Collection (ATCC); they were routinely cultured in 5% sheep blood agar plate and in Sabauraud dextrose agar, respectively, at 37 °C. Clinical isolates, identified by MALDI-TOF MS (Bruker Daltonik, GmbH, Bremen, Germany), were profiled for their antibiotic susceptibility by using the Vitek2 semiautomated system (bioMerieux, Craponne, France) and according to EUCAST guidelines [EUCAST: The European Committee on Antimicrobial Susceptibility Testing. Breakpoint tables for interpretation of MICs and zone diameters. Version 12, 2022, http://www.eucast.org (accessed on 1 January 2022)].
Microbial inocula were prepared at 0.5 McFarland in PBS and, subsequently, bacterial suspensions were diluted 1:200 in Mueller–Hinton broth (Sigma-Aldrich, St. Louis, MO, USA), while fungal inoculum was diluted 1:20 in RPMI-1640 medium (Gibco®, ThermoFisher Scientific Inc., Waltham, MA, USA), containing glucose 2%, 0.3% levo-glutamine buffered to pH 7.0 with 0.165 M 3-(N-morpholino)propanesulfonic acid (MOPS). A total of 100 µL of these microbial suspensions were introduced in a 96-well microplate and treated with 100 µL of the compound at 100 µM or with two-fold serial dilutions of the compound in the range of 400 µM–3.12 µM. All compounds were previously dissolved in 100% DMSO at a concentration of 20 mM. Experiments included controls used to measure the microbial growth in regular medium (positive control) and to check the background turbidity of the reagents and the sterility of the procedures (negative controls). In addition, microbial growths were assessed in the presence of the DMSO solvent in the range of 0.015–2%. The inoculated plate was incubated at 37 °C for 24 h, and subsequently, the optical density at 630 nm was measured by the Multiskan Ascent microplate reader (Thermo Fisher Scientific Inc., Waltham, MA, USA). […] All the experiments were performed on triplicate in at least two independent assays.

For data set [3], the system named is Candida albicans ATCC 10231. Description: Microdilution broth susceptibility test, C. albicans reference strain. The class given is cell-based. As to conditions: for activity at 100 µM: Candida albicans, ATCC10231, 24 h, growth as percentage relative to positive growth control, mean ± SD, read-out: C. albicans microbial growth.
From the text: as §1

The test system of data set [4] is S. aureus clinical isolates (MSSA and MRSA). Description: Microdilution broth susceptibility test, S. aureus clinical isolates. Format: cell-based. As to conditions: Staphylococcus aureus, 10 clinical isolates, read-out: IC50 against S. aureus clinical isolates (range over isolates).
From the text: as §1

Where [5] appears, read: Staphylococcus aureus, ATCC25923, 24 h.

Where “and” joins values, the source holds several entries; their conditions need not be identical. Equal values may be shown once.

`Cc1cc(C)c2c(c1)NC(=O)C2(C1CNc2ccccc21)C1CNc2ccccc21` (stereo not shown) [4e, 4′,6′-dimethyl-[3,3′:3′,3″-terindolin]-2′-one]: the activity at 100 µM amounted to 103 ± 1.4% in data set [1], 71.2 ± 8.7% in data set [2] (setting [5]) and 68.8 ± 2.7% in data set [3]. Also, in the data set on Vero cells (ATCC CCL-81), the “Cytotoxicity on Vero cells in words” value is given as “affect Vero cells proliferation”. In the data set with Vero cells (ATCC CCL-81), the Vero cell proliferation is 8.5 ± 0.3.
The corresponding values for `O=C1Nc2c(Cl)ccc(Cl)c2C1(C1CNc2ccccc21)C1CNc2ccccc21` (stereo not shown) [4f, 4′,7′-dichloro-[3,3′:3′,3″-terindolin]-2′-one] are 96.9 ± 1.7%, 75.8 ± 1.8%, 107 ± 4.2%, “affect Vero cells proliferation” and 9.8 ± 0.5.
As for `COc1ccc(CN2C(=O)C(C3CNc4ccccc43)(C3CNc4ccccc43)c3cc(OC)ccc32)cc1` (stereo not shown) [4g, 5′-methoxy-1′-(4-methoxybenzyl)-[3,3′:3′,3″-terindolin]-2′-one], the activity at 100 µM in data set [1] came out at 100.3 ± 0.7%; in data set [2] (setting [5]), 86.2 ± 5.7%; in data set [3], 50.6 ± 6.6%. Besides, in the data set on Vero cells (ATCC CCL-81), the Vero cell proliferation is reported as 107.9 ± 8.9.
Regarding `O=C1Nc2cccc(I)c2C1(C1CNc2ccccc21)C1CNc2ccccc21` (stereo not shown) [4h, 4′-iodo-[3,3′:3′,3″-terindolin]-2′-one], the activity at 100 µM was 82 ± 1.5% in data set [1], 72.8 ± 6.1% in data set [2] (setting [5]) and 23.2 ± 2.1% in data set [3]. In addition, in the data set on Vero cells (ATCC CCL-81), the “Cytotoxicity on Vero cells in words” value was “affect Vero cells proliferation”. In addition, in the data set on Vero cells (ATCC CCL-81), the Vero cell proliferation turned out to be 10.6 ± 0.3. For the same compound, the “Antifungal activity against C. albicans in words” value in data set [3] (100 µM (48.93 µg/mL)) is given as “significantly reduced the growth of C. albicans”.
Regarding `O=C1Nc2cc(OC(F)(F)F)ccc2C1(C1CNc2ccccc21)C1CNc2ccccc21` (stereo not shown) [4l, 6′-(trifluoromethoxy)-[3,3′:3′,3″-terindolin]-2′-one], the results for the activity at 100 µM in data set [1], in data set [2] (setting [5]) and in data set [3] were 103 ± 1.6%, 72 ± 2.2% and 93.3 ± 2.1%, respectively. The same compound displayed a Vero cell proliferation in the data set with Vero cells (ATCC CCL-81) of 8.9 ±0.4.
In the same order, the values of `COc1ccc2c(c1)C(C1(C3CNc4ccc(OC)cc43)C(=O)Nc3cc(OC)c(OC)c(OC)c31)CN2` (stereo not shown) [5d, 4′,5,5′,5″,6′-pentamethoxy-[3,3′:3′,3″-terindolin]-2′-one] are 117 ± 1.1%, 89.1 ± 7%, 120 ± 2% and 54.3 ± 0.9.
The corresponding values for `COc1ccc2c(c1)C(C1(C3CNc4ccc(OC)cc43)C(=O)N(Cc3ccc(Cl)cc3)c3ccccc31)CN2` (stereo not shown) [5m, 1′-(4-chlorobenzyl)-5,5″-dimethoxy-[3,3′:3′,3″-terindolin]-2′-one] are 113 ± 0.6%, 95.1 ± 3.9%, 88.2 ± 5.2% and 87.0 ± 5.7.
For `O=C1Nc2ccccc2C1(c1c(Cl)nc2sccn12)c1c(Cl)nc2sccn12` [6c, 3,3-bis(6-chloroimidazo[2,1-b]thiazol-5-yl)indolin-2-one], the activity at 100 µM in data set [1] stood at 117 ± 3.1%; in data set [2] (setting [5]) it was 95.4 ± 2.4%; in data set [3] it was 126 ± 2.1%. For the same compound, the Vero cell proliferation in the data set on Vero cells (ATCC CCL-81) is on record as 92.8 ± 4.8.
The corresponding values for `COc1ccc(CN2C(=O)C(c3c(Cl)nc4sccn34)(c3c(Cl)nc4sccn34)c3cc(OC)ccc32)cc1` [6g, 3,3-bis(6-chloroimidazo[2,1-b]thiazol-5-yl)-5-methoxy-1-(4-methoxybenzyl)indolin-2-one] are 73.6 ± 9.1%, 67.4 ± 8.4%, 92.4 ± 3.6% and 84.3 ± 0.9.
One may read the IC50 as the concentration that gives 50% inhibition. As for `COc1ccc2c(c1)C(c1c(Cl)nc3sccn13)(c1c(Cl)nc3sccn13)C(=O)N2` [6k, 3,3-bis(6-chloroimidazo[2,1-b]thiazol-5-yl)-5-methoxyindolin-2-one], the values for the activity at 100 µM in data set [1], in data set [2] (setting [5]) and in data set [3] were 103 ± 2.4%, 43.4 ± 5.6% and 104 ± 1.9%, respectively. Further, the IC50 in data set [4] was 73 to 85.3 µM; in data set [2] (Staphylococcus aureus, ATCC25923, 24 h, read-out: IC50 against S. aureus), 39.1 µg/mL and 80 µM. This compound also came in with a Vero cell proliferation in the data set with Vero cells (ATCC CCL-81) of 70.9 ± 5.6. Also, the “Activity against S. aureus in words” value in data set [2] (100 µM) is recorded as “highly active”. The “Efficacy at the highest tested concentration in words” value in data set [2] (400 µM) is recorded as “completely inhibit bacterial growth”. For the same compound, the “Selectivity of antibacterial activity versus cytotoxicity in words” value in data set [2] (S. aureus growth compared with Vero cytotoxicity at 100 µM) is given as “selective inhibitory property against the Gram-positive strain”.
